In article PMC7681098 (Theranostics, 2021):
Like-named read-outs stand apart in the source and are kept apart here.

What was measured:
c-Src = target: T1, c-Src (Homo sapiens, UniProt P12931); experiment: Kinase inhibition assay (Reaction Biology); assay type: biochemical
T1 construct: purchased Reaction Biology Corporation (PA, USA)

ERK1 = target: T2, ERK1 (Homo sapiens, UniProt P27361); experiment: Kinase inhibition assay (Reaction Biology); assay type: biochemical
T2 construct: purchased Reaction Biology Corporation (PA, USA)
T2 sequence (P27361 whole entry): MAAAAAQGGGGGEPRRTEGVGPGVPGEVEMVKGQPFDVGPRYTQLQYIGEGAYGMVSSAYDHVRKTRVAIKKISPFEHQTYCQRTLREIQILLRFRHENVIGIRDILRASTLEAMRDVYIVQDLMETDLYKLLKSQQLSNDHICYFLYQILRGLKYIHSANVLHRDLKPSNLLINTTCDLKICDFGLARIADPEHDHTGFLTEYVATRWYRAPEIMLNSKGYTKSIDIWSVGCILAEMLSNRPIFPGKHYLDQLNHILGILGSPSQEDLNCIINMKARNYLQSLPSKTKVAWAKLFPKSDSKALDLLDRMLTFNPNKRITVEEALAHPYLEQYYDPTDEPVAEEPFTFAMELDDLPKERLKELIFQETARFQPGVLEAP

FLT1/VEGFR1 = target: T3, FLT1/VEGFR1 (Homo sapiens, UniProt P17948); experiment: Kinase inhibition assay (Reaction Biology); assay type: biochemical
T3 construct: purchased Reaction Biology Corporation (PA, USA)
T3 sequence (P17948 27-1338): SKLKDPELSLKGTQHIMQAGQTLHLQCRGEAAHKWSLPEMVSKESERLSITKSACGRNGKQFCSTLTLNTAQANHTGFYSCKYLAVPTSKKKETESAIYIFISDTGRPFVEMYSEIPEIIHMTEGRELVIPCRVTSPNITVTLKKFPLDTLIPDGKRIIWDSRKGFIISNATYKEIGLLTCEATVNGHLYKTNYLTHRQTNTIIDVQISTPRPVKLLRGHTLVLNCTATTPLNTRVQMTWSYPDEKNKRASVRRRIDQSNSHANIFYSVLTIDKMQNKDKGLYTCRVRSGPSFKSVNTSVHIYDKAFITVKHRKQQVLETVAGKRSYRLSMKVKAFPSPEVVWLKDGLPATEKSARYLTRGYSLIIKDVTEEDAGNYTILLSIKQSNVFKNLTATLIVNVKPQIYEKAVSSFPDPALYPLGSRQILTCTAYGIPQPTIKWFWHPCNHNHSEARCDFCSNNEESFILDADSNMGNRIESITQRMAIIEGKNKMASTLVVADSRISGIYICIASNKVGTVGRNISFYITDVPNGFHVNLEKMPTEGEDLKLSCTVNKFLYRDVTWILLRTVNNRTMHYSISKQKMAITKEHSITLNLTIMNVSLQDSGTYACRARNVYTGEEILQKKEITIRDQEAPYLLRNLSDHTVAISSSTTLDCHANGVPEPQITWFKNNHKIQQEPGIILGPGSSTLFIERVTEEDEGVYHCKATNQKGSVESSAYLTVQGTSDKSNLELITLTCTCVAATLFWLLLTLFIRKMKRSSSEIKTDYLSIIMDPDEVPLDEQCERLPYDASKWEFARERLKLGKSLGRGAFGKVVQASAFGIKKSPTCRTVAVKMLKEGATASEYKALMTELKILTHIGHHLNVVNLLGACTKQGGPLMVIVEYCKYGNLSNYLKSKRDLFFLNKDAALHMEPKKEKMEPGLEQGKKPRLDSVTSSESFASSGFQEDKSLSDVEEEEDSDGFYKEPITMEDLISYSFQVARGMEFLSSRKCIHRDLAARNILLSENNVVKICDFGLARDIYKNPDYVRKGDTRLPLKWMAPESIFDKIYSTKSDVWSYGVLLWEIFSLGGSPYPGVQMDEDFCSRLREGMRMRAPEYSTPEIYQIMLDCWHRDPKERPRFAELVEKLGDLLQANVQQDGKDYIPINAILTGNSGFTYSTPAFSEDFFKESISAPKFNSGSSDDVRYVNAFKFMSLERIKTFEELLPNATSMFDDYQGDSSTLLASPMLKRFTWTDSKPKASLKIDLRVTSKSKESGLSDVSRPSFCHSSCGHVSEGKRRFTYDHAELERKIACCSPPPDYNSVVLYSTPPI

FLT3 (D835Y) = target: T4, FLT3 (D835Y) (Homo sapiens, UniProt P36888, D835Y); experiment: Kinase inhibition assay (Reaction Biology); assay type: biochemical
T4 construct: purchased Reaction Biology Corporation (PA, USA)

JAK1 = target: T5, JAK1 (Homo sapiens, UniProt P23458); experiment: Kinase inhibition assay (Reaction Biology); assay type: biochemical
T5 construct: purchased Reaction Biology Corporation (PA, USA)
T5 sequence (P23458 whole entry): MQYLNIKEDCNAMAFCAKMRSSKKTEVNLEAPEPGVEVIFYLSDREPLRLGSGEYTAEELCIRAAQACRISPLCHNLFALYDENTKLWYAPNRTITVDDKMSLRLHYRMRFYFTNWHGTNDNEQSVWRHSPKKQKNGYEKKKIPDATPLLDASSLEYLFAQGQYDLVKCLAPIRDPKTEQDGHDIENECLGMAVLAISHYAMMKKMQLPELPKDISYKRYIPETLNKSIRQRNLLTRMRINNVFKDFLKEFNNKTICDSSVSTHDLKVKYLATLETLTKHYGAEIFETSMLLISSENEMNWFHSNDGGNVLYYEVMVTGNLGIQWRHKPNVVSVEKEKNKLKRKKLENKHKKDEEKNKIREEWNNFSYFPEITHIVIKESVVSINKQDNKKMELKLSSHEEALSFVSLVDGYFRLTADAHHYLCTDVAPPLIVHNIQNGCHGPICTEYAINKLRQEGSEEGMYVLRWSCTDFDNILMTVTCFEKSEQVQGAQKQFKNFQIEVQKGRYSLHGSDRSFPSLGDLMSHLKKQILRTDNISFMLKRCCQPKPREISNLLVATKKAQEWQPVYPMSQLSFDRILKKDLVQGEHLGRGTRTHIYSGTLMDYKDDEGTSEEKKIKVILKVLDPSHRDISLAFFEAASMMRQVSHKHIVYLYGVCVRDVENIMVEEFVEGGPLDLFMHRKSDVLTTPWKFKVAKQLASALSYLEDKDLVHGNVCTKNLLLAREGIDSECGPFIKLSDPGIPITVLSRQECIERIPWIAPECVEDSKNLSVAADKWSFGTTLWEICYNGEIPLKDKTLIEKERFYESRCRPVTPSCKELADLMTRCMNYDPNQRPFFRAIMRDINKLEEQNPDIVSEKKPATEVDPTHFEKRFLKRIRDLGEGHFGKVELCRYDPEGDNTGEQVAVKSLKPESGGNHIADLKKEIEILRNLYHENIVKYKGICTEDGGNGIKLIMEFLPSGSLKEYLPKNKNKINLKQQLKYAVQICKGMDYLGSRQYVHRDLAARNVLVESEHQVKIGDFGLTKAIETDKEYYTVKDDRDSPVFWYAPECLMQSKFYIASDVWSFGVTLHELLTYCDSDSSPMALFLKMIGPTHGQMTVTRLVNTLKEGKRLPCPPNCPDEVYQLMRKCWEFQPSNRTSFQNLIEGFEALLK

JAK2 = target: T6, JAK2 (Homo sapiens, UniProt O60674); experiment: Kinase inhibition assay (Reaction Biology); assay type: biochemical
T6 construct: purchased Reaction Biology Corporation (PA, USA)
T6 sequence (O60674 whole entry): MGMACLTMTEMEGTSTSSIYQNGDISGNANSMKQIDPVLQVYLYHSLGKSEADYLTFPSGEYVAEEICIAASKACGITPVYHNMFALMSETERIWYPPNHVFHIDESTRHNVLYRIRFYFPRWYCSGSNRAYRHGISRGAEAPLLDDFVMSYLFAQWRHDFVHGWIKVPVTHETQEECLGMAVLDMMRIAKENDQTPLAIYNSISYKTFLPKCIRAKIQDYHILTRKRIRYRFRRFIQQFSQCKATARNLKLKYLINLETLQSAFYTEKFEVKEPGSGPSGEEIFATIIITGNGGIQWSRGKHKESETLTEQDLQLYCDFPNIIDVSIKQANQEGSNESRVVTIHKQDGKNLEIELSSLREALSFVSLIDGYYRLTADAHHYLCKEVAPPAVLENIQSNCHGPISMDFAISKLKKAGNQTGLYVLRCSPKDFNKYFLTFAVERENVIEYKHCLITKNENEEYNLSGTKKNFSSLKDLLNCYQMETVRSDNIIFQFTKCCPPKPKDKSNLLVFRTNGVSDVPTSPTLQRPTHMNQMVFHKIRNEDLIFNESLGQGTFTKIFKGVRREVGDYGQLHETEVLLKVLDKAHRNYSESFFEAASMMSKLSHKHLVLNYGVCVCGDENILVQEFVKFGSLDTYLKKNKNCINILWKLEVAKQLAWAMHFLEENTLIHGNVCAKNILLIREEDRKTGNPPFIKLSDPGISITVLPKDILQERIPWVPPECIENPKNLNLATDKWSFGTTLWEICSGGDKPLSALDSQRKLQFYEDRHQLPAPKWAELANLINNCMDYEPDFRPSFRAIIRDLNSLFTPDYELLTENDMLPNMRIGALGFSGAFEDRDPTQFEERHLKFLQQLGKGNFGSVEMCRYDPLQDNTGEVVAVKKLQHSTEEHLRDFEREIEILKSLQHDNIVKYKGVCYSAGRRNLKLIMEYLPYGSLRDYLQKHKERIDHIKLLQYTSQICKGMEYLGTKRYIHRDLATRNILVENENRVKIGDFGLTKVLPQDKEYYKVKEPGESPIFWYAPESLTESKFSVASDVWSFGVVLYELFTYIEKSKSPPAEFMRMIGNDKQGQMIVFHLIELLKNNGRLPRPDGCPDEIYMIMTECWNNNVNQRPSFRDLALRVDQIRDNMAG

MOLM13 cells = experiment: Stroma-protecting model: proliferation in HS-5 conditional medium or normal medium; assay type: cell-based; settings: Homo sapiens, MOLM-13, 72 h, MTT
Procedure: At the indicated time point, cell viability was evaluated by MTT assay.
(A) Indicated FLT3 mutations were expressed in BaF3 cells respectively. […] The autophosphorylation level of FLT3 was visualized and compared by western blot analysis. […] The CM was prepared from HS-5 cell culture for 4 days under routine culture conditions, clarified by centrifugation, and used immediately. The CM was added to complete medium at a final concentration of 40%. Cell viabilities were measured by MTT assay. Data were shown as mean±SD. […] The FLT3 phosphorylation levels of FLT3, STAT5 and ERK 1/2 were determined by Western blot.
On the other hand, the bone marrow stroma-protecting environment containing a number of cytokines (e.g. FLT3 ligand, stromal derived factor-1, etc) could also decrease the drug efficacy of FLT3 inhibitors by activating FLT3 or its downstream effectors and building cross-talk between leukemic blasts and bone marrow microenvironment, [35].

PK study in mice = assay type: in vivo, BALB/c mice; settings: for MRT last: read-out: MRT(0-t); for MRT inf: read-out: MRT(0-∞); for concentration at 12 h: read-out: plasma concentration 12 h after administration; for half-life: read-out: apparent plasma half-life (t1/2z) (converted)
Procedure: After dosing, blood samples were collected at indicated time points (15 min, 30 min, 45 min, 60 min, 90 min, 2 h, 4 h, 6 h, 8 h, 12 h, 24 h). Blood samples from each group were collected at each time point and the supernatant was collected and used for HPLC/LC-MAS analysis.
Then, plasma levels of LT-171-861 were measured at each indicated time point. […] This inhibition efficacy lasted for 24 h, in accordance with the results of the PK experiment.

[1] = system: bone marrow mononuclear cells (BMMCs); experiment: Apoptosis assay in normal bone marrow mononuclear cells; assay type: cell-based, C57BL/6 mice; settings: 36 h
Procedure: Blue square and solid line represent intravenous injection administration. […] Mice were sacrificed at indicated time points and then tumor tissues were dissected and lysed. Phosphorylation levels of FLT3, STAT5 and ERK1/2 were measured by western blotting. (C) Bone marrow mononuclear cells (BMMCs) were isolated from healthy C57BL/6 mice. […] Apoptosis assays were conducted after 36-hour incubation. […] 24 h after the last administration, c-Kit^+ cells were evaluated by flow cytometry. […] Data were shown with mean±SD.
Then, we evaluated progenitor cell (c-Kit^+) lineages of bone marrow cells (Figure 4D), spleen or liver weights (Figure S2A), relative body weights (Figure S2B), and parameters of blood routine examination (Figure S2C).

[2] = system: MV4-11 cells and MOLM13 cells; experiment: Subcutaneous xenograft model; assay type: in vivo, BALB/c nude mice
Procedure: According to previously described, [31], BALB/c nude mice were subcutaneously inoculated with MV4-11 cells (5×10^6) and MOLM13 cells (5×10^6). […] Tumor volume and body weight were measured with the caliper twice weekly. Tumor volumes were calculated based on: tumor volume=length×width^2/2.
LT-171-861 was administered every two days in xenograft mice. […] Tumor-eliminated mice were monitored for an additional 20 days after dosing was halted.
Data were shown as mean±SD. […] Data were shown as mean±SD. (C) An engrafted tumor model was used to evaluate in vivo antitumor activity. The NOD/SCID mice were intravenously inoculated with MV4-11 cells. […] Log-rank testing was used to compare survival curves among treatment groups. […] (D) Apoptotic assays in engraft model were evaluated by TUNEL assay and cell proliferative activity was measured by Ki67 assay. Images were acquired at ×40 magnification. (E) BALB/c nude mice were subcutaneously inoculated with MV4-11 cells (5×10^6) and bodyweight of each mouse was recorded every other day. (F) Representative photo of tumors from BALB/c nude mice which were inoculated with MV4-11 cells. (G) BALB/c nude mice were subcutaneously inoculated with BaF3 cells bearing FLT3-ITD-N676D (n=6) and FLT3-ITD-F691L (n=6) respectively. […] (H) BALB/c mice were intravenously inoculated with cells used in (G). […] Log-rank testing was used to compare survival curves among treatment groups. […] (I) Representative photos of spleens dissected from mice in (H) inoculated with BaF3 cells bearing FLT-3-ITD-F691L.

[3] = system: AML patient blasts expressing FLT3-ITD; experiment: Viability of AML patient blasts (MTT); assay type: cell-based, human; settings: 72 h, compared with AC220 and sorafenib
[4] = female, BALB/c, mouse, plasma, 10 mg/kg, IV
[5] = female, BALB/c, mouse, plasma, po, 10 mg/kg, IG

T1 sequence (P12931 whole entry): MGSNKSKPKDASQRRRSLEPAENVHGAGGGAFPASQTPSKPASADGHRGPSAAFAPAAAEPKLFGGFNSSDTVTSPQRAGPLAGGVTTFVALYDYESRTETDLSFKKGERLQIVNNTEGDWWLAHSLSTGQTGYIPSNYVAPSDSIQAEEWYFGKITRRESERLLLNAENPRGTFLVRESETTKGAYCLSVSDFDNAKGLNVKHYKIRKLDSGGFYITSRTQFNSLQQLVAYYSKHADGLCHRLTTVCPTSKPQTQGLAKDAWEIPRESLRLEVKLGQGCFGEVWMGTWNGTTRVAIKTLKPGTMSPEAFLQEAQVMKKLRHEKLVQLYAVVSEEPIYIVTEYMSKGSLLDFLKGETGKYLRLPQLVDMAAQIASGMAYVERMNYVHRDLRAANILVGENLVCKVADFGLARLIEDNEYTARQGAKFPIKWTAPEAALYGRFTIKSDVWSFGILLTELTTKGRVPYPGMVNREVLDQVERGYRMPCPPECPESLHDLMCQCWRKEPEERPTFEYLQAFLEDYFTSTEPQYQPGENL

CN1CCN(Cc2ccc(NC(=O)c3n[nH]cc3Nc3ncnc4[nH]ccc34)cc2)CC1 [LT-171-861]
IC50 (c-Src): 0.072 µM | IC50 (ERK1): > 0.2 µM | IC50 (ERK1; 10 μM ATP, 10-dose IC50 mode): 1.06 µM | IC50 (FLT1/VEGFR1): 0.0056 µM | IC50 (FLT3 (D835Y)): < 0.001 µM | IC50 (FLT3 (D835Y); 10 μM ATP, 10-dose IC50 mode): 0.000132 µM | IC50 (JAK1): 0.055 µM | IC50 (JAK2): 0.0338 µM | IC50 (MOLM13 cells; HS-5 conditional medium (CM) 40%, read-out: IC50 proliferation of MOLM13 cells in CM): 0.0247 µM | IC50 (MOLM13 cells; normal medium (NM), read-out: IC50 proliferation of MOLM13 cells in NM): 0.0199 µM | CLz (PK study in mice; 10 mg/kg, IG): 314.0953 mL/min/kg | Vz (PK study in mice; 10 mg/kg, IG): 100.1863 L/kg | AUC(0-inf) (PK study in mice; [4]): 3380 ng·h/mL | AUC(0-t) (PK study in mice; [4]): 3310 ng·h/mL | clearance (PK study in mice; female, BALB/c, mouse, plasma, 10 mg/kg, IV, read-out: CLz (converted)): 49.3 mL/min/kg | MRT last (PK study in mice; [4]): 1.86 h | MRT inf (PK study in mice; [4]): 2.1 h | Vd (PK study in mice; female, BALB/c, mouse, plasma, 10 mg/kg, IV, read-out: Vz): 8.61 L/kg | Cmax (PK study in mice; female, BALB/c, mouse, plasma, 10 mg/kg, intravenous injection (IV)): 2170 ng/mL | Cmax (PK study in mice; female, BALB/c, mouse, plasma, 10 mg/kg, oral administration): 200 nM | Cmax (PK study in mice; female, BALB/c, mouse, plasma, 10 mg/kg, oral administration (IG)): 88 ng/mL | concentration at 12 h (PK study in mice; female, BALB/c, mouse, plasma, intravenous, 10 mg/kg, i.v): 50.1 nM | half-life (PK study in mice; female, BALB/c, mouse, plasma, iv, 10 mg/kg, intravenous (tail) injection (IV)): 2.02 h | bioavailability (PK study in mice; female, BALB/c, mouse, plasma, oral versus intravenous at 10 mg/kg): ~15% | concentration at 12 h (PK study in mice; female, BALB/c, mouse, plasma, oral, 10 mg/kg, p.o): 30 nM | AUC(0-inf) (PK study in mice; [5]): 531 ng·h/mL | AUC(0-t) (PK study in mice; [5]): 463 ng·h/mL | MRT last (PK study in mice; [5]): 4.28 h | MRT inf (PK study in mice; [5]): 5.95 h | Tmax (PK study in mice; female, BALB/c, mouse, plasma, po, 10 mg/kg, oral administration (IG), read-out: Tmax (time to maximum plasma level)): 1 h | half-life (PK study in mice; female, BALB/c, mouse, plasma, po, 10 mg/kg, oral administration (IG)): 3.68 h | toxicity in normal BMMCs [1]: hypotoxicity | tumor growth in xenograft models ([2]; 10 mg/kg intravenous every two days, 20 or 24-day treatment): complete tumor regression was achieved | bodyweight during dosing ([2]; MV4-11 cell line xenograft model): no significant weight suppression | H&E staining in liver, heart, spleen, lung and kidney ([2]; MV4-11 cell line xenograft model, end of experiment): no significant damage | tumor regrowth after dosing was halted ([2]; monitored for an additional 20 days): No tumor regrowth was observed | antileukemic activity in blasts with FLT3-ITD mutations [3]: comparable antileukemic activity
